In patent publication EP0726261A1, “Herbidical 1,2,4 thiadiazoles” (American Cyanamid Company, priority 1995, dated 1996):

How the values were obtained:
Format in all cases: in vivo
Setaria viridis [1] = experiment: Preemergence herbicidal activity (Example 67); parameters: herbicide rating, SETVI: scale not given here; settings: pre, 800 g/ha; for herbicide rating, SETVI: rated about 1-3 weeks after treatment
Method: (§1) Herbicidal evaluation of compounds of the invention is conducted on the following plant species:
(§2) The soil is a prepared horticultural substrate containing 30% peat, 20% volcanic clay, 30% bark residues and 20% polyamide/styromull in a 1:3 mixture with loamy sand. Test solutions are prepared by dissolving the test compound in acetone containing 0.5% of an alkylphenol/ethylene oxide condensate under the trademark, TRITON® X-155, and diluting with water as needed. The test solutions are applied as a spray to the 3-6 week old seedling plants at dose rates corresponding to 800g/ha in a volume equivalent to 400 L/ha. A pneumatic spraying device employing a Teejet nozzle SS 8002E operating at 3 bar is used for a predetermined time. After spraying, the treated plants are placed on greenhouse benches and cared for in a manner commensurate with conventional greenhouse practice. After 10-21 days, the treated plants are evaluated and rated according to the rating system provided below.
(§3) The soil surface is then sprayed with test solutions as described in the postemergence evaluation hereinabove. After spraying, the treated cups are placed on greenhouse benches and cared for in the manner commensurate with conventional greenhouse practice. About 1-3 weeks after treatment the cups are evaluated and rated according to the rating system provided hereinabove.

Alopecurus myosuroides [2] = experiment: Preemergence herbicidal activity (Example 67); parameters: herbicide rating, ALOMY: scale not given here; settings: pre, 800 g/ha; for herbicide rating, ALOMY: rated about 1-3 weeks after treatment
Method: as §1, §2, §3

Amaranthus retroflexus [3] = experiment: Preemergence herbicidal activity (Example 67); settings: pre, 800 g/ha; for herbicide rating, AMARE: rated about 1-3 weeks after treatment
Method: as §1, §2, §3

Helianthus annuus [4] = experiment: Preemergence herbicidal activity (Example 67); settings: pre, 800 g/ha; for herbicide rating, HELAN: rated about 1-3 weeks after treatment
Method: as §1, §2, §3

Ipomoea hederacea [5] = experiment: Preemergence herbicidal activity (Example 67); settings: pre, 800 g/ha; for herbicide rating, IPOHE: rated about 1-3 weeks after treatment
Method: as §1, §2, §3

Galium aparine [6] = experiment: Preemergence herbicidal activity (Example 67); settings: pre, 800 g/ha; for herbicide rating, GALAP: rated about 1-3 weeks after treatment
Method: as §1, §2, §3

Veronica persica [7] = experiment: Preemergence herbicidal activity (Example 67); settings: pre, 800 g/ha; for herbicide rating, VERPE: rated about 1-3 weeks after treatment
Method: as §1, §2, §3

Zea mays [8] = experiment: Preemergence herbicidal activity (Example 67); settings: pre, 800 g/ha; for herbicide rating, ZEAMX: rated about 1-3 weeks after treatment
Method: as §1, §2, §3

Chenopodium album [9] = experiment: Preemergence herbicidal activity (Example 67); settings: pre, 800 g/ha; for herbicide rating, CHEAL: rated about 1-3 weeks after treatment
Method: as §1, §2, §3

Abutilon theophrasti [10] = experiment: Preemergence herbicidal activity (Example 67); settings: pre, 800 g/ha; for herbicide rating, ABUTH: rated about 1-3 weeks after treatment
Method: as §1, §2, §3

Amaranthus retroflexus [11] = experiment: Postemergence herbicidal activity (Example 67); settings: pos, 800 g/ha; for herbicide rating, AMARE: rated after 10-21 days
Method: as §1, §2

Helianthus annuus [12] = experiment: Postemergence herbicidal activity (Example 67); settings: pos, 800 g/ha; for herbicide rating, HELAN: rated after 10-21 days
Method: as §1, §2

Setaria viridis [13] = experiment: Postemergence herbicidal activity (Example 67); settings: pos, 800 g/ha; for herbicide rating, SETVI: rated after 10-21 days
Method: as §1, §2

Hordeum vulgare [14] = experiment: Postemergence herbicidal activity (Example 67); settings: pos, 800 g/ha; for herbicide rating, HORVW: rated after 10-21 days
Method: as §1, §2

Ipomoea hederacea [15] = experiment: Postemergence herbicidal activity (Example 67); settings: pos, 800 g/ha; for herbicide rating, IPOHE: rated after 10-21 days
Method: as §1, §2

Triticum aestivum [16] = experiment: Postemergence herbicidal activity (Example 67); settings: pos, 800 g/ha; for herbicide rating, TRZAW: rated after 10-21 days
Method: as §1, §2

Galium aparine [17] = experiment: Postemergence herbicidal activity (Example 67); settings: pos, 800 g/ha; for herbicide rating, GALAP: rated after 10-21 days
Method: as §1, §2

Veronica persica [18] = experiment: Postemergence herbicidal activity (Example 67); settings: pos, 800 g/ha; for herbicide rating, VERPE: rated after 10-21 days
Method: as §1, §2

Zea mays [19] = experiment: Postemergence herbicidal activity (Example 67); settings: pos, 800 g/ha; for herbicide rating, ZEAMX: rated after 10-21 days
Method: as §1, §2

Chenopodium album [20] = experiment: Postemergence herbicidal activity (Example 67); settings: pos, 800 g/ha; for herbicide rating, CHEAL: rated after 10-21 days
Method: as §1, §2

Abutilon theophrasti [21] = experiment: Postemergence herbicidal activity (Example 67); settings: pos, 800 g/ha; for herbicide rating, ABUTH: rated after 10-21 days
Method: as §1, §2

Alopecurus myosuroides [22] = experiment: Postemergence herbicidal activity (Example 67); settings: pos, 800 g/ha; for herbicide rating, ALOMY: rated after 10-21 days
Method: as §1, §2

Hordeum vulgare [23] = experiment: Preemergence herbicidal activity (Example 67); parameters: herbicide rating, HORVW: scale not given here; settings: pre, 800 g/ha; for herbicide rating, HORVW: rated about 1-3 weeks after treatment
Method: as §1, §2, §3

Triticum aestivum [24] = experiment: Preemergence herbicidal activity (Example 67); parameters: herbicide rating, TRZAW: scale not given here; settings: pre, 800 g/ha; for herbicide rating, TRZAW: rated about 1-3 weeks after treatment
Method: as §1, §2, §3

CC(NC(=O)c1nc(-c2cccc(Cl)n2)ns1)c1cccs1 (racemic) [Example 47] was tested, and the “SET VI rating” value (Setaria viridis [1]) was 3 (16-29%), the “ALO MY rating” value (Alopecurus myosuroides [2]) was 0 and the “AMA RE rating” value (Amaranthus retroflexus [3]) was 0. For the same compound, the “HEL AN rating” value (Helianthus annuus [4]) was 0, the “IPO HE rating” value (Ipomoea hederacea [5]) was 1 (1-5%) and the “GAL AP rating” value (Galium aparine [6]) was 1 (1-5%). For the same compound, the “VER PE rating” value (Veronica persica [7]) was 0, the “ZEA MX rating” value (Zea mays [8]) was 0 and the “CHE AL rating” value (Chenopodium album [9]) was 0. For the same compound, the “ABU TH rating” value (Abutilon theophrasti [10]) was 2 (6-15%), the “AMA RE rating” value (Amaranthus retroflexus [11]) was 1 (1-5%) and the “HEL AN rating” value (Helianthus annuus [12]) was 5 (45-64%). The “SET VI rating” value (Setaria viridis [13]) was 6 (65-79%), the “HOR VW rating” value (Hordeum vulgare [14]) was 3 (16-29%) and the “IPO HE rating” value (Ipomoea hederacea [15]) was 4 (30-44%). The “TRZ AW rating” value (Triticum aestivum [16]) was 1 (1-5%), the “GAL AP rating” value (Galium aparine [17]) was 4 (30-44%) and the “VER PE rating” value (Veronica persica [18]) was 3 (16-29%). The “ZEA MX rating” value (Zea mays [19]) was 4 (30-44%), the “CHE AL rating” value (Chenopodium album [20]) was 4 (30-44%) and the “ABU TH rating” value (Abutilon theophrasti [21]) was 4 (30-44%). For the same compound, the “ALO MY rating” value (Alopecurus myosuroides [22]) was 4 (30-44%), the “HOR VW rating” value (Hordeum vulgare [23]) was 0 and the “TRZ AW rating” value (Triticum aestivum [24]) was 0.
In the case of CCCCc1nsc(C(=O)NC(C)c2cccs2)n1 (racemic) [Example 25], the “herbicide rating, SETVI” value (Setaria viridis [1]) is reported as 0, the “herbicide rating, ALOMY” value (Alopecurus myosuroides [2]) is reported as 0 and the “herbicide rating, AMARE” value (Amaranthus retroflexus [3]) is reported as 0. For the same compound, the “herbicide rating, HELAN” value (Helianthus annuus [4]) was 0, the “herbicide rating, IPOHE” value (Ipomoea hederacea [5]) was 0 and the “herbicide rating, GALAP” value (Galium aparine [6]) was 0. For the same compound, the “herbicide rating, VERPE” value (Veronica persica [7]) was 4 (30-44%), the “herbicide rating, ZEAMX” value (Zea mays [8]) was 0 and the “herbicide rating, CHEAL” value (Chenopodium album [9]) was 6 (65-79%). The “herbicide rating, ABUTH” value (Abutilon theophrasti [10]) was 0, the “herbicide rating, AMARE” value (Amaranthus retroflexus [11]) was 3 (16-29%) and the “herbicide rating, HELAN” value (Helianthus annuus [12]) was 7 (80-90%). The “herbicide rating, SETVI” value (Setaria viridis [13]) was 8 (91-99%), the “herbicide rating, HORVW” value (Hordeum vulgare [14]) was 3 (16-29%) and the “herbicide rating, IPOHE” value (Ipomoea hederacea [15]) was 5 (45-64%). The “herbicide rating, TRZAW” value (Triticum aestivum [16]) was 2 (6-15%), the “herbicide rating, GALAP” value (Galium aparine [17]) was 6 (65-79%) and the “herbicide rating, VERPE” value (Veronica persica [18]) was 3 (16-29%). For the same compound, the “herbicide rating, ZEAMX” value (Zea mays [19]) was 0, the “herbicide rating, CHEAL” value (Chenopodium album [20]) was 6 (65-79%) and the “herbicide rating, ABUTH” value (Abutilon theophrasti [21]) was 6 (65-79%). The “herbicide rating, ALOMY” value (Alopecurus myosuroides [22]) was 4 (30-44%), the “herbicide rating, HORVW” value (Hordeum vulgare [23]) was 0 and the “herbicide rating, TRZAW” value (Triticum aestivum [24]) was 0.
CCCCc1nsc(C(=O)N[C@@H](C)c2ccccc2)n1 [Example 32] was tested, and the “herbicide rating, SETVI” value (Setaria viridis [1]) was 0, the “herbicide rating, ALOMY” value (Alopecurus myosuroides [2]) was 0 and the “herbicide rating, AMARE” value (Amaranthus retroflexus [3]) was 0. For the same compound, the “herbicide rating, HELAN” value (Helianthus annuus [4]) was 0, the “herbicide rating, IPOHE” value (Ipomoea hederacea [5]) was 0 and the “herbicide rating, GALAP” value (Galium aparine [6]) was 0. For the same compound, the “herbicide rating, VERPE” value (Veronica persica [7]) was 5 (45-64%), the “herbicide rating, ZEAMX” value (Zea mays [8]) was 0 and the “herbicide rating, CHEAL” value (Chenopodium album [9]) was 5 (45-64%). For the same compound, the “herbicide rating, ABUTH” value (Abutilon theophrasti [10]) was 0, the “herbicide rating, AMARE” value (Amaranthus retroflexus [11]) was 3 (16-29%) and the “herbicide rating, HELAN” value (Helianthus annuus [12]) was 5 (45-64%). For the same compound, the “herbicide rating, SETVI” value (Setaria viridis [13]) was 7 (80-90%), the “herbicide rating, HORVW” value (Hordeum vulgare [14]) was 2 (6-15%) and the “herbicide rating, IPOHE” value (Ipomoea hederacea [15]) was 5 (45-64%). The “herbicide rating, TRZAW” value (Triticum aestivum [16]) was 3 (16-29%), the “herbicide rating, GALAP” value (Galium aparine [17]) was 6 (65-79%) and the “herbicide rating, VERPE” value (Veronica persica [18]) was 0. For the same compound, the “herbicide rating, ZEAMX” value (Zea mays [19]) was 0, the “herbicide rating, CHEAL” value (Chenopodium album [20]) was 5 (45-64%) and the “herbicide rating, ABUTH” value (Abutilon theophrasti [21]) was 5 (45-64%). The “herbicide rating, ALOMY” value (Alopecurus myosuroides [22]) was 2 (6-15%), the “herbicide rating, HORVW” value (Hordeum vulgare [23]) was 0 and the “herbicide rating, TRZAW” value (Triticum aestivum [24]) was 0.
For O=C(NCc1cccs1)c1nc(-c2cccc(F)c2)ns1 [Example 44], the “SET VI rating” value (Setaria viridis [1]) was 3 (16-29%), the “ALO MY rating” value (Alopecurus myosuroides [2]) was 4 (30-44%) and the “AMA RE rating” value (Amaranthus retroflexus [3]) was 0. The “HEL AN rating” value (Helianthus annuus [4]) was 0, the “IPO HE rating” value (Ipomoea hederacea [5]) was 3 (16-29%) and the “GAL AP rating” value (Galium aparine [6]) was 0. For the same compound, the “VER PE rating” value (Veronica persica [7]) was 0, the “ZEA MX rating” value (Zea mays [8]) was 0 and the “CHE AL rating” value (Chenopodium album [9]) was 0. The “ABU TH rating” value (Abutilon theophrasti [10]) was 0, the “AMA RE rating” value (Amaranthus retroflexus [11]) was 0 and the “HEL AN rating” value (Helianthus annuus [12]) was 0. The “SET VI rating” value (Setaria viridis [13]) was 3 (16-29%), the “HOR VW rating” value (Hordeum vulgare [14]) was 3 (16-29%) and the “IPO HE rating” value (Ipomoea hederacea [15]) was 3 (16-29%). For the same compound, the “TRZ AW rating” value (Triticum aestivum [16]) was 3 (16-29%), the “GAL AP rating” value (Galium aparine [17]) was 3 (16-29%) and the “VER PE rating” value (Veronica persica [18]) was 0. For the same compound, the “ZEA MX rating” value (Zea mays [19]) was 2 (6-15%), the “CHE AL rating” value (Chenopodium album [20]) was 0 and the “ABU TH rating” value (Abutilon theophrasti [21]) was 0. The “ALO MY rating” value (Alopecurus myosuroides [22]) was 0, the “HOR VW rating” value (Hordeum vulgare [23]) was 0 and the “TRZ AW rating” value (Triticum aestivum [24]) was 0.
